{"source": "patent EP0513849B1", "about": "“Method of preparing transgenic Zea mays plants regenerated from protoplasts or protoplast-derived cells” (Novartis AG, priority 1987, dated 1988)", "key": {"Zea mays protoplasts [1]": {"system": "Zea mays protoplasts", "test": "Colony formation from Zea mays protoplasts with DMSO and O-acetyl-salicylic acid in the presence of 2,4-D (Example 20)", "assay_type": "cell-based", "conditions": "for number of formed colonies: no additions, 0.75 million protoplasts per ml, counted after 3 weeks", "method": "(§1) The plates containing the protoplasts in agarose are placed in the dark at 26 °C. Within 14 days, cell colonies arise from the protoplasts. The agarose containing the colonies is transferred to the surface of a 9 cm diameter petri dish containing 30 ml of N6 medium with 2 mg/liter 2,4-D, solidified with 0.24% w/v Gelrite^R (2N6). The colonies are cultured to give callus. The callus is cultured further in the dark at 26 °C and callus pieces subcultured every 2 weeks onto fresh N6 medium containing 2 mg/liter 2,4-D (solidified with 0.24% w/v Gelrite^R).\nProtoplasts are resuspended in the last step of example 3 in 6/7 strength KMC solution at 7.5 million per ml. The O-acetyl-salicylic acid is dissolved at 2.5 mg/ml in KM medium. The solution is filter sterilized. The O-acetyl-salicylic acid is then added to the culture medium immediately before use. Aliquots of protoplast suspension are placed in 6 cm diameter petri dishes at room temperature. 3 ml of KM medium containing 1.2% w/v SeaPlaque^R agarose, 2,4-D and O-acetyl salicylic acid is added so as to give the correct 2,4-D and O-acetyl-salicylic acid concentrations and a protoplast density of 0.5 million per ml. The agarose and protoplasts are mixed well, and the medium allowed to gel.\nThe protoplasts are prepared and plated at 0.75 million per ml as described in example 18, using 1 ml of medium per 3.5 cm diameter petri dish. O-acetyl-salicylic acid is included in the medium. The O-acetyl-salicylic acid is dissolved in DMSO and then added to the medium before plating of the protoplasts. To obtain a solution in DMSO, 1 g of O-acetyl-salicylic acid is dissolved in 10 ml DMSO, and added to 90 ml distilled water. The solution is then filter sterilized before use.\nThe dishes are cultured as described in example 10. After a period of 3 weeks, macroscopic colonies arising in the dishes are counted. […]"}, "Zea mays protoplasts [2]": {"system": "Zea mays protoplasts", "test": "Colony formation from cultured Zea mays protoplasts in the presence of plant growth regulators (auxins) (Example 21)", "assay_type": "cell-based", "conditions": "0.54 million protoplasts per ml, counted after 3 weeks", "method": "as §1\nProtoplasts are resuspended in the last step of example 3 in 6/7 strength KMC solution at 5 million per ml.\nAliquots of protoplast suspension are placed in 6cm diameter petri dishes at room temperature. 2 ml of KM medium containing 1.2% w/v SeaPlaque^R agarose, and 2,4-D, Picloram, Dicamba or para-Chlorophenoxyacetic acid (pCPA) to give the correct plant growth regulator concentrations is added. The final protoplast density used is 0.54 million per ml. The agarose and protoplasts are mixed well, and the medium allowed to gel.\nThe dishes are cultured as described in example 10. After a period of 3 weeks, macroscopic colonies arising in the dishes are counted."}, "[3]": {"conditions": "plant growth regulator concentration 0.1 mg/liter"}, "[4]": {"conditions": "plant growth regulator concentration 1 mg/liter"}, "[5]": {"conditions": "plant growth regulator concentration 10 mg/liter"}}}
{"smiles": "O=C(O)COc1ccc(Cl)cc1Cl", "note": "[2,4-D, 2,4-dichlorophenoxyacetic acid]", "values": [{"measurement": "number of formed colonies", "setting": "Zea mays protoplasts [1]; 2,4-D 0.1 mg/liter", "value": 1}, {"measurement": "number of formed colonies", "setting": "Zea mays protoplasts [1]; 2,4-D 0.3 mg/liter", "value": 2}, {"measurement": "number of formed colonies", "setting": "Zea mays protoplasts [1]; 2,4-D 1.0 mg/liter", "value": 45}, {"measurement": "number of colonies formed", "setting": "Zea mays protoplasts [2]; [3]", "value": 140}, {"measurement": "number of colonies formed", "setting": "Zea mays protoplasts [2]; [4]", "value": 0}, {"measurement": "number of colonies formed", "setting": "Zea mays protoplasts [2]; [5]", "value": 0}]}
{"smiles": "C[S+](C)[O-]", "note": "[DMSO]", "values": [{"measurement": "colony forming efficiency", "setting": "Zea mays protoplasts [1]; DMSO alone, 1% v/v", "value": "no significant increase or decrease"}, {"measurement": "effect on the stimulatory activity of O-acetyl-salicylic acid", "setting": "Zea mays protoplasts [1]; O-acetyl-salicylic acid dissolved in DMSO", "value": "potentiates the stimulatory activity of the O-acetyl-salicylic acid"}]}
{"smiles": "COc1c(Cl)ccc(Cl)c1C(=O)O", "note": "[dicamba, 3,6-dichloro-2-methoxy benzoic acid]", "values": [{"measurement": "number of colonies formed", "setting": "Zea mays protoplasts [2]; [3]", "value": 62}, {"measurement": "number of colonies formed", "setting": "Zea mays protoplasts [2]; [4]", "value": 288}, {"measurement": "number of colonies formed", "setting": "Zea mays protoplasts [2]; [5]", "value": 0}]}
{"smiles": "O=C(O)COc1ccc(Cl)cc1", "note": "[pCPA, para-chlorophenoxyacetic acid]", "values": [{"measurement": "number of colonies formed", "setting": "Zea mays protoplasts [2]; [3]", "value": 52}, {"measurement": "number of colonies formed", "setting": "Zea mays protoplasts [2]; [4]", "value": 0}, {"measurement": "number of colonies formed", "setting": "Zea mays protoplasts [2]; [5]", "value": 0}]}
